Assay results from ChEMBL document CHEMBL1201862, “PubChem BioAssay data set” (2004).
The source made the active and inactive calls.

Key:
[1] = molecular target: Mitogen-activated protein kinase 10 (Homo sapiens, UniProt P53779); assay: Dose response biochemical screening assay for inhibitors of c-Jun N-Terminal Kinase 3 (JNK3). [Related pubchem assays: 746 ]
[2] = molecular target: T1, Heat shock factor protein 1 (Mus musculus, UniProt P38532); assay: HSF1 potentiators in luciferase reporter cells, confirmation, cell-based, NIH3T3, luminescence, dose retest (AID 435004); assay type: functional;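 also: stress induced by proteasome inhibitor MG132 added 30 min after compound; luciferase reporter driven by HSF1 response element in NIH3T3 cells; actives raise luminescence as potentiators of the MG132 stress response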
T1 sequence (P38532 whole entry): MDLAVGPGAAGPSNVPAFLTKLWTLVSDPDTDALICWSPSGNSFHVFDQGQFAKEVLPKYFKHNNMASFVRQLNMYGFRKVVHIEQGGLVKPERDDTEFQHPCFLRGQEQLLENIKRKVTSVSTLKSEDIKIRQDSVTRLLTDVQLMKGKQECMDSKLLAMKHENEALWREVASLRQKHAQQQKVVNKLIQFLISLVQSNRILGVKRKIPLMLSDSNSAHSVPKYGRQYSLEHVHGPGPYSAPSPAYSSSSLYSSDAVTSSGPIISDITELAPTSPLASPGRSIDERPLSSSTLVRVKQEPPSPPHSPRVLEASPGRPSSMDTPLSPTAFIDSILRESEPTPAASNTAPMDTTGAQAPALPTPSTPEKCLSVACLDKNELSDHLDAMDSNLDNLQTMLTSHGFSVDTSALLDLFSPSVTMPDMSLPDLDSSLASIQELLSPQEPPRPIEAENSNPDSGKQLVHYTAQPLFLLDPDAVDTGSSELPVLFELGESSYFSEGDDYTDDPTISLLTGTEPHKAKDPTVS

[3] = cytotoxicity in OVCAR8 ovarian cancer cells, dose response, PAX8 project, cell-based, plate reader, dry powder samples (AID 743197); assay type: functional; conditions: OVCAR-8
[4] = NIH:OVCAR-3 ovarian cancer cell cytotoxicity, dose response, PAX8 inhibitor project, plate reader, dry powder samples (AID 743044); assay type: functional, cell-based
[5] = IGROV1 ovarian cancer cell cytotoxicity, dose response, PAX8 inhibitor project, plate reader, dry powder samples (AID 743043); assay type: functional, cell-based; conditions: IGROV-1
Paired box protein Pax-8 = Paired box protein Pax-8 (Homo sapiens, UniProt Q06710); assay: inhibitors of PAX8-driven TPO luciferase reporter, dose response, RMG-I cells, cherry-pick (AID 687027); assay type: functional, cell-based;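 also: luciferase reporter driven by Pax8 target thyroperoxidase promoter measured by SteadyGlo luminescence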
[6] = SK-MEL-5 parental cell viability reduction, dose response, orthogonal assay for MITF inhibitor project, CellTiter-Glo luminescence, dry powder, set 8 (AID 651586); assay type: functional, cell-based
[7] = A375 melanoma cell viability loss, dose response, counter-screen for MITF inhibitor project, CellTiter-Glo luminescence, dry powder, set 4 (AID 624364); assay type: functional, cell-based; conditions: A-375;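 also: A375 melanoma cells are MITF independent so this is a counter screen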
[8] = A375 melanoma cell viability loss, dose response, counter-screen for MITF modulator project, CellTiter-Glo luminescence, dry powder, set 9 (AID 651591); assay type: functional, cell-based; conditions: A-375
[9] = A375 melanoma cell cytotoxicity, dose response, counter-screen for MITF inhibitor project, CellTiter-Glo luminescence, dry powder, set 7 (AID 624490); assay type: functional, cell-based; conditions: A-375
[10] = MALME3 melanoma cell viability reduction, dose response, orthogonal assay for MITF inhibitor project, CellTiter-Glo luminescence, dry powder, set 5 (AID 651584); assay type: functional, cell-based; conditions: MALME-3
[11] = SK-MEL-5 parental line viability, dose response, MITF inhibitor project, cell-based, CellTiter-Glo, dry powder, set 6 (AID 624429); assay type: functional
[12] = A375 melanoma cell cytotoxicity, dose response, counter-screen for MITF inhibitor project, CellTiter-Glo luminescence, dry powder, set 6 (AID 624488); assay type: functional, cell-based; conditions: A-375
[13] = cytotoxicity in primary human melanocytes, dose response, cytotoxicity control, cell-based, plate reader, dry powder (AID 651920); assay type: functional
[14] = MITF Orthogonal Assay: SK-MEL-5 CTG Assay Measured in Cell-Based System Using Plate Reader - 2084-02_Inhibitor_Dose_DryPowder_Activity_Set5.; assay type: functional
[15] = TRPM1 promoter luciferase reporter signal decrease, dose response, MITF inhibitor project, cell-based, SK-MEL-5, dry powder, set 9 (AID 651588); assay type: functional
[16] = MITF Measured in Cell-Based System Using Plate Reader - 2084-01_Inhibitor_Dose_DryPowder_Activity_Set6.; assay type: functional
[17] = MITF Measured in Cell-Based System Using Plate Reader - 2084-01_Inhibitor_Dose_DryPowder_Activity_Set7.; assay type: functional
[18] = MITF Orthogonal Assay: MALME3 CTG Assay Measured in Cell-Based System Using Plate Reader - 2084-04_Inhibitor_Dose_DryPowder_Activity_Set6.; assay type: functional; conditions: MALME-3
[19] = P. falciparum Dd2 growth inhibitors, dose response, SYBR Green, cherry-picked samples (AID 1159567); assay type: functional, cell-based
[20] = HepG2 cell cytotoxicity, dose response, cytotoxicity control, cherry-picked samples (AID 1159577); assay type: functional, cell-based
[21] = molecular target: Heat shock protein HSP 90-alpha (Homo sapiens, UniProt P07900); assay: Luminescence-based dose response biochemical high throughput screening assay for inhibitors of the Heat Shock Protein 90 (HSP90). [Related pubchem assays: 1831 (Summary AID.), 1846 (Confirmation screen.), 1789 (Primary screen.)]

Chain of Paired box protein Pax-8 (Q06710 whole entry): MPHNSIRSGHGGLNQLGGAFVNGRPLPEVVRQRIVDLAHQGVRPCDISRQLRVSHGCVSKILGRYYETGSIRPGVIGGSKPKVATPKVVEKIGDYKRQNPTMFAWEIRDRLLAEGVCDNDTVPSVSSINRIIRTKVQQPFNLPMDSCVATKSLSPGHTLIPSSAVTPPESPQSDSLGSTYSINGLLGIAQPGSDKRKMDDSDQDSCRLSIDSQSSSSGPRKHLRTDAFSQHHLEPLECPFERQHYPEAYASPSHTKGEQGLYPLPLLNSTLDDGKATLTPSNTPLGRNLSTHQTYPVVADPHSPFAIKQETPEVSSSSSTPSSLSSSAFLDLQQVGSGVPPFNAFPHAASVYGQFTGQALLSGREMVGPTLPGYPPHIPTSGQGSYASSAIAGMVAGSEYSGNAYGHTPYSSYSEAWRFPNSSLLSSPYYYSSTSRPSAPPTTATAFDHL
Chain of Mitogen-activated protein kinase 10 (P53779 whole entry): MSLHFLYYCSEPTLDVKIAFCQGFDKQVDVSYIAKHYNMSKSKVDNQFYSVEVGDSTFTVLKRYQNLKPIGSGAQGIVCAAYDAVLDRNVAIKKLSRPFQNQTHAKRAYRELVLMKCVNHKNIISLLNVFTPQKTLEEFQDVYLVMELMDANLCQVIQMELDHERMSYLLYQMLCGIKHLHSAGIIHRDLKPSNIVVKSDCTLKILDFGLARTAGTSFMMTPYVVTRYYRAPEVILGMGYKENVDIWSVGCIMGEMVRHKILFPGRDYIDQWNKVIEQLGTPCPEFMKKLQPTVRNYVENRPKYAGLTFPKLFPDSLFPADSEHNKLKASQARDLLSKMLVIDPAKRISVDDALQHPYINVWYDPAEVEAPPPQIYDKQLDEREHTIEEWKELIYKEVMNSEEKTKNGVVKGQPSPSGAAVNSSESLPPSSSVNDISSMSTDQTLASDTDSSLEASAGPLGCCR

For `C/C(=N/Cc1ccco1)C1=C(O)c2ccccc2C1=O`, the IC50 [1] was 30.9 µM (not active) and the EC50 [2] was > 260 µM (inactive).

For `C[C@H]1CCCCO[C@H](CN(C)Cc2ccc(Cl)c(Cl)c2)[C@@H](C)CN([C@@H](C)CO)C(=O)c2cc(NC(=O)Nc3ccc(C(F)(F)F)cc3)ccc2O1`, the AC50 [3] was 50.7 µM (active), the AC50 [4] was 23.4 µM (active) and the AC50 [5] was 59 µM (active). For the same molecule, the AC50 (Paired box protein Pax-8) was 9.26 µM (active).

In the case of `C[C@@H]1CCCCO[C@H](CN(C)Cc2ccc(Cl)c(Cl)c2)[C@@H](C)CN([C@@H](C)CO)C(=O)c2cc(NC(=O)Nc3ccc(C(F)(F)F)cc3)ccc2O1`, the AC50 [3] is reported as > 70 µM (inactive), the AC50 [4] is reported as 40 µM (active) and the AC50 (Paired box protein Pax-8) is reported as 4.2 µM (active).

In the case of `O=C1C(NS(=O)(=O)c2cccs2)=C(c2ccccc2)C(=O)c2ccccc21`, the AC50 [6] is reported as > 70 µM (inactive), the AC50 [7] is reported as > 70 µM (inactive) and the AC50 [8] is reported as > 70 µM (inactive). For the same molecule, the AC50 [9] was > 70 µM (inactive), the AC50 [10] was > 70 µM (inactive) and the AC50 [11] was > 70 µM (inactive). The AC50 [12] was > 70 µM (inactive), the AC50 [13] was > 70 µM (inactive) and the AC50 [14] was 65.9 µM (active). The AC50 [15] was > 70 µM (inactive), the AC50 [16] was 45.7 µM (active) and the AC50 [17] was 39.1 µM (active). The AC50 [18] was > 70 µM (inactive).

In the case of `C/C=C/c1ccc([C@@H]2[C@@H]3CN(Cc4ccc5c(c4)OCO5)C[C@H]2N3)cc1`, the AC50 [19] is reported as 4.09 µM (active) and the AC50 [20] is reported as 11.8 µM (active).

With `CO[C@H]1CN(C)C(=O)c2cc(NC(=O)c3ccc(Oc4ccccc4)cc3)ccc2OC[C@@H](C)NC[C@@H]1C` the AC50 [19] was 6.05 µM (active) and the AC50 [20] was > 39 µM (inactive).

With `Nc1cc(-c2ccccc2)ccc1O` the IC50 [21] was 3.39 µM (active).
